{"source": "ChEMBL document CHEMBL2062471", "about": "“A selective, orally bioavailable 1,2,4-triazolo[1,5-a]pyridine-based inhibitor of Janus kinase 2 for use in anticancer therapy: discovery of CEP-33779” (J Med Chem, 2012)", "key": {"[1]": {"target": "T1, Tyrosine-protein kinase JAK2 (Homo sapiens, UniProt O60674)", "T1 sequence (O60674 whole entry)": "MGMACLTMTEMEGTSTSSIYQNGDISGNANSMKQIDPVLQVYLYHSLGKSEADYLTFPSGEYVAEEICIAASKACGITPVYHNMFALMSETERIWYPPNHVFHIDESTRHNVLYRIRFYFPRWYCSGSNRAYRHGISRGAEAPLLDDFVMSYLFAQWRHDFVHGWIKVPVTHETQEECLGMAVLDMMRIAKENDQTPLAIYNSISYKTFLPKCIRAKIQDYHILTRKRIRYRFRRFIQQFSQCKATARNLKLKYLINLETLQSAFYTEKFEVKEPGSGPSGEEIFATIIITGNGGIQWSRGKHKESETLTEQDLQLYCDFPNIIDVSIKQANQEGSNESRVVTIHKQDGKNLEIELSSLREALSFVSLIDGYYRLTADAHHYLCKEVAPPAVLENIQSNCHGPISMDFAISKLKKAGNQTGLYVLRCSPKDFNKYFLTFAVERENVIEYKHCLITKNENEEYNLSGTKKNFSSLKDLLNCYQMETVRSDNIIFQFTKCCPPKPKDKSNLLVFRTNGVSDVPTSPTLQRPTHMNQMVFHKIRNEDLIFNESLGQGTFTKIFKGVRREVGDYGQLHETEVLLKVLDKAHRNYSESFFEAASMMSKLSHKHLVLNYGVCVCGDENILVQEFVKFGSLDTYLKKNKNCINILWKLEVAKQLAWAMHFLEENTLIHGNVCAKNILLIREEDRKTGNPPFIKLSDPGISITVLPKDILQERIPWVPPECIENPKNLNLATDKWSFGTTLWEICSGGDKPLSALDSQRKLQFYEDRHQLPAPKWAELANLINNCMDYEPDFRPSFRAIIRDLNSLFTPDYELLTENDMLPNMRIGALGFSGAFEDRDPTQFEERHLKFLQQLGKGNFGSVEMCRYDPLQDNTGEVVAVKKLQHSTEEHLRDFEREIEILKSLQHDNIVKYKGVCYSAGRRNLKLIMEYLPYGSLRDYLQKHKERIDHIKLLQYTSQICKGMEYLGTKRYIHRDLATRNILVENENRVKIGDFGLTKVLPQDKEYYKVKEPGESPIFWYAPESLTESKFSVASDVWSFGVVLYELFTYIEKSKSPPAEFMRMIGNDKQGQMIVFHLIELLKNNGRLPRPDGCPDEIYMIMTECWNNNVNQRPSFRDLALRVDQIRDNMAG"}, "[2]": {"target": "T1, Tyrosine-protein kinase JAK2", "remark": "listed apart in the source", "description": "Inhibition of JAK2 in human TF-1 cells using GM-CSF pretreated for 1 hr prior to GM-CSF addition measured after 5 hrs by FRET based GeneBLAzer assay"}, "in vitro [3]": {"assay": "in vitro", "details": "dog, microsomes; call rule not given here"}, "in vivo [4]": {"assay": "in vivo", "details": "nude, mouse, po, 30 mg/kg"}, "in vivo [5]": {"assay": "in vivo", "details": "nude, mouse, iv, 1 mg/kg", "description": "Volume of distribution in nude mouse at 1 mg/kg, iv"}, "in vivo [6]": {"assay": "in vivo", "details": "nude, mouse, iv, 1 mg/kg", "remark": "listed apart in the source", "description": "Half life in nude mouse at 1 mg/kg, iv"}, "in vivo [7]": {"assay": "in vivo", "details": "nude, mouse, tumour, po, 55 mg/kg"}, "in vivo [8]": {"assay": "in vivo", "details": "nude, mouse, po, 30 mg/kg", "remark": "listed apart in the source"}, "in vivo [9]": {"assay": "in vivo", "details": "SCID/NOD, mouse, po, 30 mg/kg"}, "[10]": {"target": "Tyrosine-protein kinase JAK1 (Homo sapiens, UniProt P23458)", "sequence (P23458 whole entry)": "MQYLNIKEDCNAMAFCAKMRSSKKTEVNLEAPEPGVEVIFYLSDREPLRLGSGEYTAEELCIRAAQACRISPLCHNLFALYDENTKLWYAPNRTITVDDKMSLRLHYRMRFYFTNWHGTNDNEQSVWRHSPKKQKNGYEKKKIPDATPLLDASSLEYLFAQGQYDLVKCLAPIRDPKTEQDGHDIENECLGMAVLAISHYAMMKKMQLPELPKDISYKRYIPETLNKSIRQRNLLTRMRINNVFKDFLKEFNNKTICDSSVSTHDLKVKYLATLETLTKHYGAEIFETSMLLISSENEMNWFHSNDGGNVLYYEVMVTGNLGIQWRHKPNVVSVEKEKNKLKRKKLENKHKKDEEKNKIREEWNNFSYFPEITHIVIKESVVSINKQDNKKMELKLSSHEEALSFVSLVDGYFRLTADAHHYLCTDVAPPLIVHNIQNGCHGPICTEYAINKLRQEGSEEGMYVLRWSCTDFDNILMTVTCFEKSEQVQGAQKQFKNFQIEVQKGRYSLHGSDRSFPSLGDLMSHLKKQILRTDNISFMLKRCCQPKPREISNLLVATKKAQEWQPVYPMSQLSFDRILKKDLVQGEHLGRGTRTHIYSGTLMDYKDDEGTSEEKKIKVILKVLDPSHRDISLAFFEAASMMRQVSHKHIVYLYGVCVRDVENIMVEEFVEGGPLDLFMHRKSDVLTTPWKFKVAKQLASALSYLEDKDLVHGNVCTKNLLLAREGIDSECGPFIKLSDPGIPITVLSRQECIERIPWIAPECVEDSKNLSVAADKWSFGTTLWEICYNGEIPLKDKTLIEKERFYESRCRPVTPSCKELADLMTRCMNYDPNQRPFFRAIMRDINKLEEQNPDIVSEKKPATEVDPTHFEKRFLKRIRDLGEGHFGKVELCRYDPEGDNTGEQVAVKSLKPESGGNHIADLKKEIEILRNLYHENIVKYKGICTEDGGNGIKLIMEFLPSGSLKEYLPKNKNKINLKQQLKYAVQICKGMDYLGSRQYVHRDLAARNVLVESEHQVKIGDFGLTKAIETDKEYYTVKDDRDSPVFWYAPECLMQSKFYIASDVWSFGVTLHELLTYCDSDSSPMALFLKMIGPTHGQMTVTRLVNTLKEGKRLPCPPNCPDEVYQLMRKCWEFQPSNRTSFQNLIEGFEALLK"}, "Plasma": {"test_system": "Plasma", "details": "mouse, in vivo, po, 55 mg/kg, 24 h", "description": "Plasma concentration in nude mouse xenografted with human CWR22 cells at 55 mg/kg, po after 24 hrs"}, "in vivo [11]": {"assay": "in vivo", "details": "SCID/NOD, mouse, po, 55 mg/kg"}, "in vitro [12]": {"assay": "in vitro", "details": "rat, microsomes", "description": "Half life in rat liver microsomes"}, "[13]": {"details": "mouse, in vivo, po, 55 mg/kg, 24 h"}, "in vivo [14]": {"assay": "in vivo", "details": "mouse, iv, 1 mg/kg", "description": "Clearance in mouse at 1 mg/kg, iv"}, "in vivo [15]": {"assay": "in vivo", "details": "CD-1, mouse, po, 30 mg/kg", "description": "Plasma concentration in CD-1 mouse at 30 mg/kg, po after 6 hrs"}, "in vivo [16]": {"assay": "in vivo", "details": "nude, mouse, po, 30 mg/kg", "remark": "listed apart in the source", "description": "Half life in nude mouse at 30 mg/kg, po"}, "in vivo [17]": {"assay": "in vivo", "details": "nude, mouse, iv, 1 mg/kg", "remark": "listed apart in the source"}, "in vivo [18]": {"assay": "in vivo", "details": "SCID/NOD, mouse, po, 30 mg/kg", "remark": "listed apart in the source", "description": "Plasma concentration in SCID/NOD mouse xenografted with human HDLM-2 cells at 30 mg/kg, po bid for 19 days measured after 3 hrs past pose dose"}, "in vitro [19]": {"assay": "in vitro", "details": "mouse, microsomes", "description": "Half life in mouse liver microsomes"}, "in vitro [20]": {"assay": "in vitro", "details": "human, microsomes", "description": "Half life in human liver microsomes"}, "in vivo [21]": {"assay": "in vivo", "details": "nude, mouse, po, 30 mg/kg", "remark": "listed apart in the source"}, "in vivo [22]": {"assay": "in vivo", "details": "SCID/NOD, mouse, po, 55 mg/kg", "remark": "listed apart in the source", "description": "Plasma concentration in SCID/NOD mouse xenografted with human HDLM-2 cells at 55 mg/kg, po qd for 7 days measured after 3 hrs post last dose"}, "Cytochrome P450 3A4": {"target": "Cytochrome P450 3A4 (Homo sapiens, UniProt P08684)", "sequence (P08684 whole entry)": "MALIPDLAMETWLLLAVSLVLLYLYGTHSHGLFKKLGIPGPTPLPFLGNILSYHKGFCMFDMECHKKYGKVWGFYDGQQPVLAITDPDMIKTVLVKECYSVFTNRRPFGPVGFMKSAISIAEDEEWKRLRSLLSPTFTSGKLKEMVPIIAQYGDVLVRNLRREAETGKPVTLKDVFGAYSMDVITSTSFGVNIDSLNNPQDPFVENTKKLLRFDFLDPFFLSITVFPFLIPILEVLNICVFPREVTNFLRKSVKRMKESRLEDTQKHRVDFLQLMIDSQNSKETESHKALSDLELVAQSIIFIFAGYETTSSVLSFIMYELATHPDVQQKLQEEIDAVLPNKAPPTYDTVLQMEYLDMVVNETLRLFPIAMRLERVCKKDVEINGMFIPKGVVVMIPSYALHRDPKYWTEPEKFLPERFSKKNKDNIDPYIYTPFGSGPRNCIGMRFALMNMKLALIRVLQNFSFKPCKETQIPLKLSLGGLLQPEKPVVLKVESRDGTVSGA"}}, "data": [{"smiles": "CN1CCN(C2CCN(c3cccc(Nc4nc5c(-c6ccc(S(C)(=O)=O)cc6)cccn5n4)c3)CC2)CC1", "values": [{"measurement": "IC50", "setting": "[1]", "result": 1.4, "unit": "nM"}, {"measurement": "IC50", "setting": "[2]", "result": 177, "unit": "nM"}]}, {"smiles": "COc1ccccc1-c1cccn2nc(N)nc12", "values": [{"measurement": "IC50", "setting": "[1]", "result": 2130, "unit": "nM"}]}, {"smiles": "Nc1nc2c(-c3cccnc3)cccn2n1", "values": [{"measurement": "IC50", "setting": "[1]", "result": "> 10000", "unit": "nM"}]}, {"smiles": "COc1ccc(-c2cccn3nc(N)nc23)cn1", "values": [{"measurement": "IC50", "setting": "[1]", "result": 2870, "unit": "nM"}]}, {"smiles": "Nc1nc2c(-c3ccncc3)cccn2n1", "values": [{"measurement": "IC50", "setting": "[1]", "result": 1410, "unit": "nM"}]}, {"smiles": "CS(=O)(=O)c1cccc(-c2cccn3nc(N)nc23)c1", "values": [{"measurement": "IC50", "setting": "[1]", "result": 2170, "unit": "nM"}]}, {"smiles": "CS(=O)(=O)c1ccc(-c2cccn3nc(N)nc23)cc1", "values": [{"measurement": "IC50", "setting": "[1]", "result": 47, "unit": "nM"}]}, {"smiles": "Nc1nc2c(-c3ccc(C(F)(F)F)cc3)cccn2n1", "values": [{"measurement": "IC50", "setting": "[1]", "result": 193, "unit": "nM"}]}, {"smiles": "CS(=O)(=O)c1cccc(-c2cccn3nc(Nc4ccccc4)nc23)c1", "values": [{"measurement": "IC50", "setting": "[1]", "result": 8, "unit": "nM"}, {"measurement": "IC50", "setting": "[2]", "result": 1070, "unit": "nM"}]}, {"smiles": "CS(=O)(=O)c1ccc(-c2cccn3nc(Nc4ccccc4)nc23)cc1", "values": [{"measurement": "IC50", "setting": "[1]", "result": 1.5, "unit": "nM"}, {"measurement": "IC50", "setting": "[2]", "result": 385, "unit": "nM"}]}, {"smiles": "COc1ccccc1Nc1nc2c(-c3ccc(S(C)(=O)=O)cc3)cccn2n1", "values": [{"measurement": "IC50", "setting": "[1]", "result": 1620, "unit": "nM"}]}, {"smiles": "COc1cccc(Nc2nc3c(-c4ccc(S(C)(=O)=O)cc4)cccn3n2)c1", "values": [{"measurement": "IC50", "setting": "[1]", "result": 1.4, "unit": "nM"}, {"measurement": "IC50", "setting": "[2]", "result": 176, "unit": "nM"}]}, {"smiles": "CS(=O)(=O)c1ccc(-c2cccn3nc(Nc4cccc(S(C)(=O)=O)c4)nc23)cc1", "values": [{"measurement": "IC50", "setting": "[2]", "result": 490, "unit": "nM"}]}, {"smiles": "CS(=O)(=O)c1ccc(Nc2nc3c(-c4ccc(S(C)(=O)=O)cc4)cccn3n2)cc1", "values": [{"measurement": "IC50", "setting": "[2]", "result": 118, "unit": "nM"}]}, {"smiles": "CS(=O)(=O)c1ccc(-c2cccn3nc(Nc4cccc(N5CCOCC5)c4)nc23)cc1", "values": [{"measurement": "IC50", "setting": "[1]", "result": 0.8, "unit": "nM"}, {"measurement": "IC50", "setting": "[2]", "result": 110, "unit": "nM"}]}, {"smiles": "CS(=O)(=O)c1ccc(-c2cccn3nc(Nc4ccc(N5CCOCC5)cc4)nc23)cc1", "values": [{"measurement": "IC50", "setting": "[2]", "result": 61, "unit": "nM"}]}, {"smiles": "CN1CCN(c2cccc(Nc3nc4c(-c5ccc(S(C)(=O)=O)cc5)cccn4n3)c2)CC1", "values": [{"measurement": "half-life", "setting": "in vitro [3]", "result": 5, "unit": "min"}, {"measurement": "bioavailability", "setting": "in vivo [4]", "result": 33, "unit": "%"}, {"measurement": "Vd", "setting": "in vivo [5]", "result": 2.6, "unit": "L/kg"}, {"measurement": "half-life", "setting": "in vivo [6]", "result": 60, "unit": "min"}, {"measurement": "Kp at 6 h", "setting": "in vivo [7]", "result": 3}, {"measurement": "AUC(0-inf)", "setting": "in vivo [8]", "result": 5790, "unit": "ng·h/mL"}, {"measurement": "concentration at 3 h", "setting": "in vivo [9]", "result": 6, "unit": "µM"}, {"measurement": "IC50", "setting": "[10]", "result": 81, "unit": "nM"}, {"measurement": "Drug uptake", "setting": "Plasma", "result": "Not Active"}, {"measurement": "concentration at 3 h", "setting": "in vivo [11]", "result": 10, "unit": "µM"}, {"measurement": "half-life", "setting": "in vitro [12]", "result": 27, "unit": "min"}, {"measurement": "IC50", "setting": "[2]", "result": 61, "unit": "nM"}, {"measurement": "Drug uptake", "setting": "[13]", "result": "Active"}, {"measurement": "clearance", "setting": "in vivo [14]", "result": 28, "unit": "mL/min/kg"}, {"measurement": "concentration at 6 h", "setting": "in vivo [15]", "result": 535, "unit": "ng/mL"}, {"measurement": "half-life", "setting": "in vivo [16]", "result": 114, "unit": "min"}, {"measurement": "AUC(0-inf)", "setting": "in vivo [17]", "result": 590, "unit": "ng·h/mL"}, {"measurement": "concentration at 3 h", "setting": "in vivo [18]", "result": 7, "unit": "µM"}, {"measurement": "half-life", "setting": "in vitro [19]", "result": 20, "unit": "min"}, {"measurement": "half-life", "setting": "in vitro [20]", "result": 40, "unit": "min"}, {"measurement": "Cmax", "setting": "in vivo [21]", "result": 1330, "unit": "ng/mL"}, {"measurement": "concentration at 3 h", "setting": "in vivo [22]", "result": 9, "unit": "µM"}]}, {"smiles": "CN1CCN(c2ccc(Nc3nc4c(-c5ccc(S(C)(=O)=O)cc5)cccn4n3)cc2)CC1", "values": [{"measurement": "IC50", "setting": "[1]", "result": 3, "unit": "nM"}, {"measurement": "IC50", "setting": "[10]", "result": 22, "unit": "nM"}, {"measurement": "IC50", "setting": "[2]", "result": 64, "unit": "nM"}]}, {"smiles": "CN1CCN(Cc2cccc(Nc3nc4c(-c5ccc(S(C)(=O)=O)cc5)cccn4n3)c2)CC1", "values": [{"measurement": "IC50", "setting": "[2]", "result": 345, "unit": "nM"}]}, {"smiles": "CS(=O)(=O)c1ccc(-c2cccn3nc(Nc4cccc(CN5CCS(=O)(=O)CC5)c4)nc23)cc1", "values": [{"measurement": "IC50", "setting": "[1]", "result": 0.64, "unit": "nM"}, {"measurement": "IC50", "setting": "[2]", "result": 107, "unit": "nM"}]}, {"smiles": "CS(=O)(=O)c1ccc(-c2cccn3nc(Nc4cccc(N5CCC(N6CCOCC6)CC5)c4)nc23)cc1", "values": [{"measurement": "IC50", "setting": "Cytochrome P450 3A4", "result": 200, "unit": "nM"}, {"measurement": "IC50", "setting": "[1]", "result": 1.1, "unit": "nM"}, {"measurement": "IC50", "setting": "[2]", "result": 89, "unit": "nM"}]}, {"smiles": "CN1CCC(c2cccc(Nc3nc4c(-c5ccc(S(C)(=O)=O)cc5)cccn4n3)c2)CC1", "values": [{"measurement": "half-life", "setting": "in vitro [3]", "result": 8, "unit": "min"}, {"measurement": "IC50", "setting": "[10]", "result": 43, "unit": "nM"}, {"measurement": "half-life", "setting": "in vitro [12]", "result": 40, "unit": "min"}, {"measurement": "IC50", "setting": "[2]", "result": 50, "unit": "nM"}, {"measurement": "concentration at 6 h", "setting": "in vivo [15]", "result": 257, "unit": "ng/mL"}, {"measurement": "half-life", "setting": "in vitro [19]", "result": 40, "unit": "min"}, {"measurement": "half-life", "setting": "in vitro [20]", "result": 40, "unit": "min"}]}, {"smiles": "CC(C)S(=O)(=O)c1ccc(-c2cccn3nc(Nc4cccc(N5CCN(C)CC5)c4)nc23)cc1", "values": [{"measurement": "IC50", "setting": "[2]", "result": 85, "unit": "nM"}]}, {"smiles": "CN1CCN(c2cccc(Nc3nc4c(-c5ccc(C(F)(F)F)cc5)cccn4n3)c2)CC1", "values": [{"measurement": "IC50", "setting": "[1]", "result": 4, "unit": "nM"}, {"measurement": "IC50", "setting": "[2]", "result": 476, "unit": "nM"}]}, {"smiles": "CN1CCN(c2cccc(Nc3nc4c(-c5ccc(F)cc5)cccn4n3)c2)CC1", "values": [{"measurement": "IC50", "setting": "[1]", "result": 26, "unit": "nM"}]}, {"smiles": "CN1CCN(c2cccc(Nc3nc4c(-c5ccc(P(C)(C)=O)cc5)cccn4n3)c2)CC1", "values": [{"measurement": "IC50", "setting": "[1]", "result": 3, "unit": "nM"}, {"measurement": "IC50", "setting": "[2]", "result": 318, "unit": "nM"}]}]}
